Measurements published in patent publication US10993957B2 (NuCana plc, priority 2011, dated 2021).
Read-outs that look alike come from different tables or passages of the source.

What was measured:
[1] = test system: Cem/hEnt-1; assay: Cytostatic assay, CEM cells containing the hEnt1 transporter; format: cell-based
Text: (§1) Data are mean (±SD) of at least two to four independent experiments. Table 8 identifies the phosphoramidate motif of compounds embodying the present invention, as discussed above with respect to Table 6, but with “Naph” standing for 1-naphthyl.

[2] = test system: Cem/hEnt-0; assay: Cytostatic assay, CEM cells lacking the hEnt1 transporter; format: cell-based; conditions: read-out: IC50 Cem/hEnt-0
Text: as §1

[3] = test system: L1210/0; assay: Cytostatic assay, L1210/0 cells; format: cell-based, murine; conditions: for IC50: read-out: IC50 L1210/0
Text: (§2) The cell lines employed were L1210/0 (a leukemia cell line), FM3A/0 (a breast cancer cell line), Cem/0 (an acute lymphoblastic leukemia cell line) and HeLa (a cervical cell line).

[4] = test system: L1210/TK^−; assay: Cytostatic assay, thymidine kinase-deficient L1210/TK^− cells; format: cell-based, murine; conditions: for CC50: L1210, Table 1, read-out: CC50 L1210/TK^−; for IC50: Table 6, read-out: IC50 L1210/TK^−
[5] = test system: Cem/0; assay: Cytostatic assay, CEM/0 cells; format: cell-based, human; conditions: for CC50: Table 1, read-out: CC50 Cem/0; for IC50: Table 6, read-out: IC50 Cem/0
Text: as §2

[6] = test system: Cem/TK^−; assay: Cytostatic assay, thymidine kinase-deficient CEM/TK^− cells; format: cell-based, human; conditions: for CC50: Table 1, read-out: CC50 Cem/TK^−; for IC50: Table 6, read-out: IC50 Cem/TK^−
[7] = test system: HeLa; assay: Cytostatic assay, HeLa cells; format: cell-based; conditions: Table 6, read-out: IC50 HeLa
Text: as §2

[8] = test system: HeLa/TK^−; assay: Cytostatic assay, HeLa/TK^− cells; format: cell-based; conditions: Table 6, read-out: IC50 HeLa/TK^−
Text: as §2

[9] = test system: L1210.Hyor; assay: Cytostatic assay, Mycoplasma hyorhinis-infected L1210 cells; conditions: for % Retention: CC50 L1210 × 100 ÷ CC50 L1210/Hyor
Text: Murine leukaemia L1210/0 and human T-lymphocyte CEM/0 cells were obtained from the American Type Culture Collection (ATCC) (Rockville, Md.). Human glioblastoma U87 cells were kindly provided by Dr. E. Menue (Institut Pasteur, Paris, France). […] S. Eriksson (currently at Uppsala University, Uppsala, Sweden) and Prof A. Karlsson (Karolinska Institute, Stockholm, Sweden). […] All cells were maintained in Dulbecco's modified Eagle's medium (DMEM) (Invitrogen, Carlsbad, Calif.) with 10% foetal bovine serum (FBS) (Biochrom AG, Berlin, Germany), 10 mM Hepes and 1 mM Sodium Pyruvate (Invitrogen). Cells were grown at 37° C. in a humidified incubator with a gas phase of 5% CO2.
Monolayer cells (U87 and U87.Hyor) were seeded in 48-well microtiter plates (Nunc™, Roskilde, Denmark) at 10,000 cells/well. After 24 hours, an equal volume of fresh medium containing the test compounds was added. On day 5, cells were trypsinized and counted in a Coulter counter (Analis, Suarlée, Belgium). Suspension cells (L1210/0, L1210/TK^−, L1210.Hyor, CEM/0, CEM/TK^−) were seeded in 96-well microtiter plates (Nunc™) at 60,000 cells/well in the presence of a given amount of the test compounds. The cells were allowed to proliferate for 48 h (L1210) or 72 hours (CEM) and were then counted in a Coulter counter.
Samples were also assayed for their % retention of activity in mycoplasma infected cells.
The L1210/0 cell cultures were infected with the mycoplasma species M. hyorhinis (cells designated: L1210.Hyor).

[10] = Mus musculus, L1210/0, Table 1, read-out: CC50 L1210/0
[11] = Mus musculus, L1210/0, Table 2, mycoplasma negative cells, read-out: CC50 L1210
[12] = Mus musculus, L1210, read-out: CC50 L1210/Hyor
[13] = Mus musculus, L1210, read-out: IC50 L1210.Hyor
[14] = Homo sapiens, CCRF-CEM, read-out: IC50 Cem/hEnt-1
[15] = read-out: IC50 Cem/hEnt-1 + NBMPR, in the presence of NBMPR
[16] = read-out: IC50 Cem/hEnt-1 + dipyridamole, in the presence of dipyridamole

Row | Compound | CC50 [3, 10] [nM] | CC50 [3, 11] [nM] | IC50 ([3]; Mus musculus, L1210/0, Table 6) [nM] | IC50 ([3]; Mus musculus, L1210/0, Table 7) [nM] | CC50 ([4]; Mus musculus) [nM] | IC50 ([4]; Mus musculus, L1210) [nM] | CC50 ([5]; Homo sapiens, CCRF-CEM) [nM] | IC50 ([5]; Homo sapiens, CCRF-CEM) [nM] | CC50 ([6]; Homo sapiens, CEM-TK(-)) [nM] | IC50 ([6]; Homo sapiens, CEM-TK(-)) [nM] | IC50 ([7]; Homo sapiens, HeLa) [nM] | IC50 ([8]; Homo sapiens, HeLa) [nM] | % Retention [9] [%] | CC50 [9, 12] [nM] | IC50 [9, 13] [nM] | IC50(L1210.Hyor)/IC50(L1210/0) ([9]; Table 7) | IC50 [1, 14] [nM] | IC50 [1, 15] [nM] | IC50 [1, 16] [nM] | IC50 ([2]; Homo sapiens, CCRF-CEM) [nM] | other results
1 | O=c1[nH]c(=O)n([C@H]2C[C@H](O)[C@@H](COP(=O)(O)O)O2)cc1F [5-FdUMP, 5-fluoro-2′-deoxyuridine-5′-monophosphate, reference compound] | – | – | – | – | – | – | – | – | – | – | – | – | – | – | – | – | – | – | – | – | IC50 ([1]; Homo sapiens, CCRF-CEM, Table 8, read-out: IC50 Cem/hEnt-1): 50 ± 20 nM; IC50 ([1]; Homo sapiens, CCRF-CEM, in the presence of NBMPR, read-out: IC50 Cem/hEnt-1 + NBMPR): 1060 nM; IC50 ([1]; Homo sapiens, CCRF-CEM, in the presence of dipyridamole, read-out: IC50 Cem/hEnt-1 + dipyridamole): 1740 nM; IC50 ([2]; Homo sapiens, CCRF-CEM, Table 8): 3600 ± 690 nM
2 | CC(C)(NP(=O)(OC[C@H]1O[C@@H](n2cc(F)c(=O)[nH]c2=O)CC1O)Oc1ccccc1)C(=O)OCc1ccccc1 (stereo partly drawn) [CPF 393, 5-Fluoro-2′deoxyuridine-5′-O-[phenyl (benzoxy-α,α-dimethylglycine)]phosphate] | 17 ± 3 | 29 | 17 ± 3 | 29 ± 1 | 180 ± 50 | 180 ± 50 | 230 ± 40 | 230 ± 40 | 4800 ± 700 | 4800 ± 700 | 240 ± 70 | 3700 ± 100 | 145 | 20 | 20 ± 2 | 0.69 | 170 ± 60 | 610 | 260 | 1200 ± 110 | –
3 | CCOC(=O)C(C)(C)NP(=O)(OC[C@H]1O[C@@H](n2cc(F)c(=O)[nH]c2=O)CC1O)Oc1cccc2ccccc12 (stereo partly drawn) [CPF 396, 5-Fluoro-2′deoxyuridine-5′-O-[1-naphthyl (ethoxy-α,α-dimethylglycine)]phosphate] | 64 ± 8 | 56 | 64 ± 8 | 56 ± 40 | 820 ± 160 | 820 ± 160 | 360 ± 50 | 360 ± 50 | 6900 ± 1800 | 6900 ± 1800 | 200 ± 120 | 3200 | 33 | 170 | 170 ± 30 | 3 | 210 ± 70 | 620 | 520 | 1400 ± 200 | –
4 | CC(C)(NP(=O)(OCC1OC(n2cc(F)c(=O)[nH]c2=O)CC1O)Oc1cccc2ccccc12)C(=O)OCc1ccccc1 (stereo not drawn) [CPF 395, 5-Fluoro-2′deoxyuridine-5′-O-[1-naphthyl (benzoxy-α,α-dimethylglycine)]phosphate] | – | – | – | – | – | – | – | – | – | – | – | – | 42 | – | – | 2.4 | – | – | – | – | CC50 ([3]; Table 2, mycoplasma negative cells, read-out: CC50 L1210): 19 nM; IC50 ([3]; Table 6): 11 ± 5 nM; IC50 ([3]; Table 7): 19 ± 4 nM; IC50 [4]: 130 ± 40 nM; IC50 [5]: 160 ± 20 nM; IC50 [6]: 2400 ± 800 nM; IC50 [7]: 78 ± 20 nM; IC50 [8]: 3100 ± 600 nM; CC50 ([9]; read-out: CC50 L1210/Hyor, Table 2, mycoplasma positive cells): 45 nM; IC50 ([9]; read-out: IC50 L1210.Hyor, Table 7): 45 ± 4 nM; IC50 ([1]; Table 8, read-out: IC50 Cem/hEnt-1): 50 ± 30 nM; IC50 ([1]; in the presence of NBMPR, read-out: IC50 Cem/hEnt-1 + NBMPR): 280 nM; IC50 ([1]; in the presence of dipyridamole, read-out: IC50 Cem/hEnt-1 + dipyridamole): 160 nM; IC50 ([2]; Table 8): 400 ± 130 nM
